# Experimental data: PubChem BioAssay (NCI)
#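 Method: 48-hour compound exposure of cells in 96-well plates, five concentrations, linear interpolation of endpoints. The concentration for 50% growth inhibition is given as GI50. Definition used: TGI = concentration required for complete inhibition of growth.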
# Experiments:
# Test in all cases: inhibition of tumour cell growth, NCI panel, 48 h
# 786-0 renal = test system: 786-0 renal
# A498 renal = test system: A498 renal
# A549 NSCLC = test system: A549 NSCLC
# ACHN renal = test system: ACHN renal
# BT-549 breast = test system: BT-549 breast
# CAKI-1 renal = test system: CAKI-1 renal
# CCRF-CEM leukemia = test system: CCRF-CEM leukemia
# COLO 205 colon = test system: COLO 205 colon
# DU-145 prostate = test system: DU-145 prostate
# HCC-2998 colon = test system: HCC-2998 colon
# HCT-116 colon = test system: HCT-116 colon
# HCT-15 colon = test system: HCT-15 colon
# HL-60(TB) leukemia = test system: HL-60(TB) leukemia
# HOP-62 NSCLC = test system: HOP-62 NSCLC
# HOP-92 NSCLC = test system: HOP-92 NSCLC
# HS 578T breast = test system: HS 578T breast
# HT29 colon = test system: HT29 colon
# IGROV1 ovarian = test system: IGROV1 ovarian
# K-562 leukemia = test system: K-562 leukemia
# KM12 colon = test system: KM12 colon
# LOX IMVI melanoma = test system: LOX IMVI melanoma
# M14 melanoma = test system: M14 melanoma
# MALME-3M melanoma = test system: MALME-3M melanoma
# MCF7 breast = test system: MCF7 breast
# MDA-MB-231 breast = test system: MDA-MB-231 breast
# MDA-MB-435 = test system: MDA-MB-435
# MOLT-4 leukemia = test system: MOLT-4 leukemia
# NCI-H226 lung = test system: NCI-H226 lung
# NCI-H23 lung = test system: NCI-H23 lung
# NCI-H460 lung = test system: NCI-H460 lung
# NCI-H522 lung = test system: NCI-H522 lung
# NCI/ADR-RES ovarian = test system: NCI/ADR-RES ovarian
# OVCAR-3 ovarian = test system: OVCAR-3 ovarian
# OVCAR-4 ovarian = test system: OVCAR-4 ovarian
# OVCAR-5 ovarian = test system: OVCAR-5 ovarian
# OVCAR-8 ovarian = test system: OVCAR-8 ovarian
# PC-3 prostate = test system: PC-3 prostate
# RPMI-8226 leukemia = test system: RPMI-8226 leukemia
# RXF 393 renal = test system: RXF 393 renal
# SF-268 CNS = test system: SF-268 CNS
# SF-295 CNS = test system: SF-295 CNS
# SF-539 CNS = test system: SF-539 CNS
# SK-MEL-2 melanoma = test system: SK-MEL-2 melanoma
# SK-MEL-28 melanoma = test system: SK-MEL-28 melanoma
# SK-MEL-5 melanoma = test system: SK-MEL-5 melanoma
# SK-OV-3 ovarian = test system: SK-OV-3 ovarian
# SN12C renal = test system: SN12C renal
# SNB-19 CNS = test system: SNB-19 CNS
# SNB-75 CNS = test system: SNB-75 CNS
# SW-620 colon = test system: SW-620 colon
# T-47D breast = test system: T-47D breast
# TK-10 renal = test system: TK-10 renal
# U251 CNS = test system: U251 CNS
# UACC-257 melanoma = test system: UACC-257 melanoma
# UACC-62 melanoma = test system: UACC-62 melanoma
# UO-31 renal = test system: UO-31 renal
structure (smiles),measurement,setting,value
CCN(Cc1ccccc1F)c1ccc(CO)c(Cl)c1,GI50,786-0 renal,15.9 µM
same,TGI,786-0 renal,41 µM
same,GI50,A498 renal,< 0.0179 µM
same,TGI,A498 renal,0.0594 µM
same,GI50,A549 NSCLC,1.03 µM
same,TGI,A549 NSCLC,21.8 µM
same,GI50,ACHN renal,19.2 µM
same,TGI,ACHN renal,> 53.4 µM
same,GI50,BT-549 breast,15.8 µM
same,TGI,BT-549 breast,30.6 µM
same,GI50,CAKI-1 renal,3.81 µM
same,TGI,CAKI-1 renal,39.9 µM
same,GI50,CCRF-CEM leukemia,24.2 µM
same,TGI,CCRF-CEM leukemia,> 75.4 µM
same,GI50,COLO 205 colon,2.45 µM
same,TGI,COLO 205 colon,7.86 µM
same,GI50,DU-145 prostate,18.4 µM
same,TGI,DU-145 prostate,> 60 µM
same,GI50,HCC-2998 colon,8.41 µM
same,TGI,HCC-2998 colon,25 µM
same,GI50,HCT-116 colon,< 0.0273 µM
same,TGI,HCT-116 colon,11.3 µM
same,GI50,HCT-15 colon,11.5 µM
same,TGI,HCT-15 colon,47.2 µM
same,GI50,HL-60(TB) leukemia,17.7 µM
same,TGI,HL-60(TB) leukemia,47.3 µM
same,GI50,HOP-62 NSCLC,1.34 µM
same,TGI,HOP-62 NSCLC,17.8 µM
same,GI50,HOP-92 NSCLC,0.301 µM
same,TGI,HOP-92 NSCLC,8.72 µM
same,GI50,HS 578T breast,26.5 µM
same,TGI,HS 578T breast,> 66.4 µM
same,GI50,HT29 colon,3.38 µM
same,TGI,HT29 colon,21.4 µM
same,GI50,IGROV1 ovarian,< 0.0231 µM
same,GI50,K-562 leukemia,0.535 µM
same,TGI,K-562 leukemia,> 39 µM
same,GI50,KM12 colon,18.5 µM
same,TGI,KM12 colon,47.7 µM
same,GI50,LOX IMVI melanoma,20.3 µM
same,TGI,LOX IMVI melanoma,44.2 µM
same,GI50,M14 melanoma,19.9 µM
same,TGI,M14 melanoma,41.7 µM
same,GI50,MALME-3M melanoma,17.7 µM
same,TGI,MALME-3M melanoma,39.5 µM
same,GI50,MCF7 breast,0.0892 µM
same,TGI,MCF7 breast,12.7 µM
same,GI50,MDA-MB-231 breast,16.3 µM
same,TGI,MDA-MB-231 breast,41.7 µM
same,GI50,MDA-MB-435,17.2 µM
same,TGI,MDA-MB-435,40.2 µM
same,GI50,MOLT-4 leukemia,22.5 µM
same,TGI,MOLT-4 leukemia,56.2 µM
same,GI50,NCI-H226 lung,0.0137 µM
same,TGI,NCI-H226 lung,0.0511 µM
same,GI50,NCI-H23 lung,14.6 µM
same,TGI,NCI-H23 lung,57.1 µM
same,GI50,NCI-H460 lung,0.0604 µM
same,TGI,NCI-H460 lung,11 µM
same,GI50,NCI-H522 lung,16.3 µM
same,TGI,NCI-H522 lung,39.1 µM
same,GI50,NCI/ADR-RES ovarian,15.9 µM
same,TGI,NCI/ADR-RES ovarian,52.8 µM
same,GI50,OVCAR-3 ovarian,0.176 µM
same,TGI,OVCAR-3 ovarian,1.5 µM
same,GI50,OVCAR-4 ovarian,0.0793 µM
same,TGI,OVCAR-4 ovarian,5.88 µM
same,GI50,OVCAR-5 ovarian,0.0428 µM
same,TGI,OVCAR-5 ovarian,0.234 µM
same,GI50,OVCAR-8 ovarian,13.2 µM
same,TGI,OVCAR-8 ovarian,> 57 µM
same,GI50,PC-3 prostate,18.9 µM
same,TGI,PC-3 prostate,> 62.8 µM
same,GI50,RPMI-8226 leukemia,0.796 µM
same,TGI,RPMI-8226 leukemia,22.8 µM
same,GI50,RXF 393 renal,4.35 µM
same,TGI,RXF 393 renal,24.8 µM
same,GI50,SF-268 CNS,26.6 µM
same,TGI,SF-268 CNS,> 60.7 µM
same,GI50,SF-295 CNS,0.7 µM
same,TGI,SF-295 CNS,17.2 µM
same,GI50,SF-539 CNS,16.8 µM
same,TGI,SF-539 CNS,34.5 µM
same,GI50,SK-MEL-2 melanoma,1.81 µM
same,TGI,SK-MEL-2 melanoma,19.9 µM
same,GI50,SK-MEL-28 melanoma,13.5 µM
same,TGI,SK-MEL-28 melanoma,31.3 µM
same,GI50,SK-MEL-5 melanoma,2.66 µM
same,TGI,SK-MEL-5 melanoma,21.1 µM
same,GI50,SK-OV-3 ovarian,4.28 µM
same,TGI,SK-OV-3 ovarian,17.9 µM
same,GI50,SN12C renal,13.5 µM
same,TGI,SN12C renal,38.6 µM
same,GI50,SNB-19 CNS,28.4 µM
same,TGI,SNB-19 CNS,> 94.6 µM
same,GI50,SNB-75 CNS,11 µM
same,TGI,SNB-75 CNS,46.4 µM
same,GI50,SW-620 colon,0.49 µM
same,TGI,SW-620 colon,> 46.5 µM
same,GI50,T-47D breast,< 0.0213 µM
same,TGI,T-47D breast,0.177 µM
same,GI50,TK-10 renal,< 0.0201 µM
same,TGI,TK-10 renal,0.0651 µM
same,GI50,U251 CNS,0.256 µM
same,TGI,U251 CNS,24.2 µM
same,GI50,UACC-257 melanoma,< 0.0346 µM
same,TGI,UACC-257 melanoma,0.134 µM
same,GI50,UACC-62 melanoma,0.0409 µM
same,TGI,UACC-62 melanoma,0.992 µM
same,GI50,UO-31 renal,13.2 µM
same,TGI,UO-31 renal,46.4 µM
